System: Bradykinin B1 agonist-induced secretion of IL-8
Experiment: Bradykinin B1 agonist-induced secretion of IL-8 in human IMR-90 cells
Format: cell-based
Conditions: 30 min compound, then 0.1 μM Lys-[Des-Arg9]Bradykinin and 0.1 μM Sar-[D-Phe8]-des-Arg9-Bradykinin for 5 hours
Source text: 2. Inhibitory Activity on Bradykinin B1 Agonist-Induced Secretion of IL-6 and IL-8 in Human IMR-90 Cells
The effect of the Compound Examples on secretion of the cytokine IL-6 and IL-8 has been investigated in the human foetal lung fibroblast IMR-90 cell line. Here the induction of the cytokine secretion was induced by the Bradykinin B1 agonists Lys-[Des-Arg9]Bradykinin (CAS 71800-36-7, Tocris Bioscience) and Sar-[D-Phe8]-des-Arg9-Bradykinin (CAS 126959-88-4, Tocris Bioscience) leading to the activation of the Bradykinin B1-driven signalling pathway. The inhibitory activity of the tested Compound Examples on Bradykinin B1 agonist-induced secretion of IL-6 and IL-8 is indicative for the compounds' prominent anti-inflammatory mode of action in kinin driven inflammation.
IMR-90 cells were cultured in Eagle's Minimum Essential Medium (EMEM) containing 2 mM L-glutamine, 1 g/L glucose, 1.5 g/L NaHCO3, 1 mM sodium pyruvate and non-essential amino acids (ATCC, 30-2003™) supplemented with 10% FBS (Biochrom, S0615) and 50 U/mL Penicillin, 50 μg/mL Streptomycin (PAA, P11-010). The assay was performed in EMEM and a cell density of […] IMR-90 cells/96-well. The Compound Examples have been serial diluted in 100% DMSO and evaluated at 8 different concentrations within the range of 3 nM and 10 μM and a final DMSO concentration of 0.4%. The IMR-90 cells have been incubated with the respective concentration of the compound for 30 min. The enhanced secretion of IL-6 and IL-8 was induced by the stimulation of these cells with 0.1 μM Lys-[Des-Arg9]Bradykinin (Tocris, catalogue no. 3225) and 0.1 μM Sar-[D-Phe8]-des-Arg9-Bradykinin (Tocris, catalogue no. 3230) for 5 hours at 37° C. and 5% CO2. Further, cells have been treated with Lys-[Des-Arg9]Bradykinin and Sar[D-Phe8]-des-Arg9-Bradykinin as neutral control and with 0.1% DMSO as inhibitor control. The amount of IL-6 and IL-8 in the supernatant was determined using the Human ProInflammatory Panel II (4-Plex) (MSD, K15025B) according to manufacturer's instruction. Briefly, supernatants were added onto assay plates and incubated at room temperature for 1-2 h with vigorous shaking at 600 rpm. Detection antibodies were then added onto the supernatants and incubated at room temperature for an additional 1-2 h with vigorous shaking at 600 rpm. Plates were washed three times with phosphate-buffered saline (PBS; 137 mM NaCl, 2.7 mM KC1, 6.5 mM Na2HP04, 1.7 mM KH2P04) containing 0.05% Tween-20 (Bio-Rad, 161-0781) and electrochemiluminescence detected using the MSD Sector Imager 6000 plate reader. The cell viability was measured using the CellTiter-Glo Luminescent Assay (Promega, G7571) following the manufacturers protocol. Briefly, the CellTiter-Glo Reagent was diluted with PBS (1:1) and added directly to cells. After incubation and shaking for 10 minutes luminescent signal was measured which is proportional to the amount of ATP present.
The effect of the compound on the amount of secreted cytokine has been calculated as 100/(measured cytokine concentration of neutral control-measured cytokine concentration of inhibitor control)*(measured cytokine concentration of compound dose-measured cytokine concentration of inhibitor control). IC50 values are determined using 4-parameter-fit.
The Compound Examples were tested in triplicates per plate and the inhibitory activity was determined as the relation between neutral and inhibitor control in percent. IC50 values were calculated using the 4-parameter logistic model.

| Structure (SMILES) | IC50 [nM] |
| --- | --- |
| CCC(F)(F)c1ccc(-c2ccc(NC(=O)C3(c4ccc(C(F)(F)F)cc4F)CC3)cc2C(=O)O)cn1 [Example 2, 2-[6-(1,1-Difluoropropyl)pyridin-3-yl]-5-[({1-[2-fluoro-4-(trifluoromethyl)-phenyl]cyclopropyl}carbonyl)amino]benzoic acid] | 303 |
| O=C(O)c1cc(NC(=O)C2(c3ccc(C(F)(F)F)cc3F)CC2)ccc1-c1cnn(C2CCC2)c1 [Example 3, 2-(1-Cyclobutyl-1H-pyrazol-4-yl)-5-[({1-[2-fluoro-4-(trifluoromethyl)phenyl]cyclopropyl}carbonyl)amino]benzoic acid] | 53 |
| O=C(O)c1cc(NC(=O)C2(c3ccc(OC(F)(F)F)cc3F)CC2)ccc1-c1ccc(C(F)F)nc1 [Example 5, 2-[6-(Difluoromethyl)pyridin-3-yl]-5-[({1-[2-fluoro-4-(trifluoromethoxy)phenyl]cyclopropyl}carbonyl)amino]benzoic acid] | 483 |
| O=C(O)c1cc(NC(=O)C2(c3ccc(C(F)(F)F)cc3F)CC2)cc(F)c1-c1ccc(C(F)(F)F)nc1 [Example 29, 3-Fluoro-5-[({1-[2-fluoro-4-(trifluoromethyl)phenyl]cyclopropyl}carbonyl)amino]-2-[6-(trifluoromethyl)pyridin-3-yl]benzoic acid] | 489 |

The remaining compounds from weak to strong by IC50, led by results:

| IC50 [nM] | Structure (SMILES) |
| --- | --- |
| 245 | O=C(O)c1cc(NC(=O)C2(c3ccc(C(F)(F)F)cc3F)CC2)ccc1-c1cc2ccccc2s1 [Example 1, 2-(1-Benzothiophen-2-yl)-5-[({1-[2-fluoro-4-(trifluoromethyl)phenyl]cyclopropyl}carbonyl)amino]benzoic acid] |
| 205 | O=C(O)c1cc(NC(=O)C2(c3ccc(C(F)(F)F)cc3F)CC2)ccc1-c1ccc(C(F)(F)F)nc1 [Example 6, 5-[({1-[2-Fluoro-4-(trifluoromethyl)phenyl]cyclopropyl}carbonyl)amino]-2-[6-(trifluoromethyl)pyridin-3-yl]benzoic acid] |
| 85 | O=C(O)c1cc(NC(=O)C2(c3ccc(C(F)(F)F)cc3F)CC2)cc(F)c1-c1cnn(C2CCC2)c1 [Example 42, 2-(1-Cyclobutyl-1H-pyrazol-4-yl)-3-fluoro-5-[({1-[2-fluoro-4-(trifluoromethyl)phenyl]cyclopropyl}carbonyl)amino]benzoic acid] |

Source: patent US12023319B2, “Carboxylic acid aromatic amides” (priority 2016, dated 2024)
